In the assay the test system is STAT5 phosphorylation downstream of JAK3 in human YT cells. Kind of assay: pSTAT5 cell assay (IL-2 stimulated YT cells, AlphaScreen). It is filed as cell-based. The note with it: IL-2 stimulation, read-out: Inhibition values (IC50) pSTAT5. The text has this: STAT5 phosphorylation represents one of the proximal events in the signalling cascade downstream of JAK3 activation. Therefore STAT5 phosphorylation is an appropriate readout to assess the mechanistic effect of JAK3 inhibition. Stimulation of human YT cells, an NK-like cell line, with interleukin-2 (IL-2) results in phosphorylation of STAT5 at tyrosine residue 694 (Tyr694) that can be quantitatively measured by immunodetection with specific antibodies and an appropriate detection method, in this case AlphaScreen assay technology.
Human YT cells were grown in RPMI medium (Lonza, BE12-167) with 2 mM L-Glutamine (Invitrogen, 25030-024) and 10% heat-inactivated FBS (Invitrogen, 10106-169) and kept in a humidified incubator (37° C., 5% CO2). Cells were harvested by centrifugation, washed once with HBSS (Invitrogen, 14180-046), resuspended in HBSS at 1.5×10^6 cells/ml and 0.9×10^4 cells were seeded in 6 μl per well in a 96 well White plate (PerkinElmer, 6005569).
Test compounds were dissolved in DMSO and a 1:3 dilution series (9 steps) was prepared. To generate a dose response curve, 3 μl of fourfold concentrated compound in 4% DMSO/HBSS were added to each cell sample in the 96 well plate resulting in a final DMSO concentration of 1% DMSO. Cells were incubated for one hour in a humidified incubator (37° C., 5% CO2). To each well 3 μl of a fourfold concentrated IL-2 solution (Recombinant human IL-2, Peprotech 200-02; 120 nM solution in HBSS) was added and incubated for 30 minutes at room temperature. Cells were lysed by adding 3 μl of 5× lysis buffer (SureFire lysis buffer; Perkin Elmer, TGRS5S10K) and incubated for 10 minutes at room temperature with gentle shaking
For signal detection by AlphaScreen® technology the SureFire phospho-STAT5 (Tyr694/Tyr699) kit was used according to instructions provided by the manufacturer (Perkin Elmer, TGRS5S10K). Acceptor beads were added as recommended by the manufacturer (Reactivation buffer/Activation buffer/Acceptor beads at a ratio of 40:10:1) and incubated at room temperature for 1.5 hours with gentle shaking Then donor beads were added as recommended (Dilution buffer/Donor beads at a ratio of 20:1) and incubated at room temperature for 1.5 hours with gentle shaking Plates were read on an Envision instrument (Perkin Elmer) with the AlphaScreen protocol. Data were analysed in BioAssay using the nonlinear regression for a sigmoidal dose-response with a variable slope.
(In general: In Alpha technology, singlet oxygen from a donor bead excites a nearby acceptor bead.)

Broadly, the IC50 is the midpoint of a concentration-inhibition curve. As to `NC(=O)Cn1cc(Nc2ncc(Cl)c(N[C@H](CO)c3cccc(F)c3)n2)cn1` [Compound 87], the IC50 is less than 250 nM.
